US20240016884A1, “WS635 USES THEREOF IN MEDICINE” (WATERSTONE PHARMACEUTICALS (WUHAN) CO., LTD., priority 2021, published 2024)

Experiments:
[1] = tested on: anesthesia/surgery-induced delirium-like behavior in mice; assay: Buried Food Test after anesthesia/surgery; type: in vivo
Source text: (§1) Mice Anesthesia and Surgery. 18-month-old C57BL/J6 female mice were adaptive in lab for 3 days. The mice were randomly assigned to the anesthesia/surgery group or control group by weight. […] Specifically, we anesthetized each of the mice using 1.4% isoflurane in 100% oxygen in a transparent acrylic chamber. Fifteen minutes after the induction, we moved the mouse out of the chamber. Isoflurane anesthesia was maintained via a cone device, and one 16-gauge needle was inserted into the cone near the nose of the mouse to monitor the concentration of isoflurane. We made a longitudinal midline incision from the xiphoid to the 0.5 centimeter proximal pubic symphysis on the skin, abdominal muscles and peritoneum. We then sutured the incision layer by layer with 5-0 Vicryl thread.
(§2) WS635 Treatment. WS635 was dissolved in corn oil with 10% DMSO, each of the mice will be injected with WS635 solution in the dose of 40 mg/kg for 0.2 ml through IP at 30 minutes before control condition or anesthesia/surgery by using 27G×½ needles. The mice in control group received 0.2 ml of corn oil with 10% DMSO.
(§3) Behaviors Tests. […] We will perform the behavior tests in groups of 3 mice and finished them within 50 minutes, which mimics the certain features of clinical evaluation of delirium in patients.
Buried Food Test. Specifically, two days before the test, we will give each mouse 2 pieces of the sweetened cereal. […]

[2] = tested on: anesthesia/surgery-induced delirium-like behavior in mice; assay: Y Maze Test after anesthesia/surgery; type: in vivo; conditions: 40 mg/kg IP 30 minutes before anesthesia/surgery
Source text: as §1, §2, §3
Y Maze Test. Specifically, the Y maze, made of gray polyvinylene, will be placed in a quiet and illuminated room. […]

[3] = tested on: anesthesia/surgery-induced delirium-like behavior in mice; assay: Open Field Test after anesthesia/surgery; type: in vivo; conditions: 40 mg/kg IP 30 minutes before anesthesia/surgery
Source text: as §1, §2, §3
Open Field Test. Specifically, the mouse will be gently placed in the center of an open field chamber (40×40×40 centimeters) under dim light and will be allowed to move freely for 5 minutes. The movement parameters of the mouse will be monitored and analyzed via a video camera connected to the Any-Maze animal tracking system software (Stoelting Co., Wood Dale, IL). The total distance moved (meters), the time (seconds) spent in the center of the open field, the freezing time (seconds) and the latency (the time in seconds for the mice to reach to the location at the first attempt) to the center of the open field will be recorded and analyzed. The floor of the open field will be cleaned with 70% ethanol solution between each test. […]

[4] = tested on: anesthesia/surgery-induced delirium-like behavior in mice; assay: delirium-like behaviors overall (composite Z score) after anesthesia/surgery; type: in vivo
Source text: as §1, §2
Behaviors Tests. […] We will perform the behavior tests in groups of 3 mice and finished them within 50 minutes, which mimics the certain features of clinical evaluation of delirium in patients. […]

[5] = tested on: anesthesia/surgery-induced cognitive impairment in mice; assay: anesthesia/surgery-induced cognitive impairment in mice; type: in vivo; conditions: 1.4% isoflurane and abdominal surgery
Source text: as §1
Mice Anesthesia for isoflurane-induced cognitive impairment experiment. 8 month-old C57BL/6J mice. Anesthesia: 1.4% isoflurane for two hours.
WS635 Treatment for isoflurane-induced cognitive impairment experiment. WS635 was dissolved in 10% DMSO plus corn oil. Each mouse received 26.4 mg/kg WS635 or same volume of vehicle (10% DMSO plus corn oil) at 30 minutes before the anesthesia. Then, the mice were tested in Fear Conditioning System at 48 hours and 7 days after the anesthesia.
WS635 Treatment. […]

[6] = tested on: hepatitis C virus (HCV) replication; conditions: in vitro; cited from earlier work
cyclophilin A = cyclophilin A (Homo sapiens, UniProt P62937); conditions: cited from earlier work
calcineurin = conditions: at concentrations up to 2 μM; cited from earlier work
cytochrome P450 1A2 = conditions: metabolic studies; cited from earlier work
cytochrome P450 2B6 = conditions: metabolic studies; cited from earlier work
cytochrome P450 3A4 = conditions: metabolic studies; cited from earlier work
P-glycoprotein = P-glycoprotein (Homo sapiens, UniProt P08183); conditions: cited from earlier work
stimulated Jurkat cells = conditions: compared with cyclosporine; cited from earlier work
[7] = tested on: stimulated human peripheral blood mononuclear cells; conditions: compared with cyclosporine; cited from earlier work
hepatitis C virus (HCV) = conditions: two-drug combination, in vitro; cited from earlier work
[8] = cited from earlier work

P-glycoprotein, sequence (P08183 whole entry): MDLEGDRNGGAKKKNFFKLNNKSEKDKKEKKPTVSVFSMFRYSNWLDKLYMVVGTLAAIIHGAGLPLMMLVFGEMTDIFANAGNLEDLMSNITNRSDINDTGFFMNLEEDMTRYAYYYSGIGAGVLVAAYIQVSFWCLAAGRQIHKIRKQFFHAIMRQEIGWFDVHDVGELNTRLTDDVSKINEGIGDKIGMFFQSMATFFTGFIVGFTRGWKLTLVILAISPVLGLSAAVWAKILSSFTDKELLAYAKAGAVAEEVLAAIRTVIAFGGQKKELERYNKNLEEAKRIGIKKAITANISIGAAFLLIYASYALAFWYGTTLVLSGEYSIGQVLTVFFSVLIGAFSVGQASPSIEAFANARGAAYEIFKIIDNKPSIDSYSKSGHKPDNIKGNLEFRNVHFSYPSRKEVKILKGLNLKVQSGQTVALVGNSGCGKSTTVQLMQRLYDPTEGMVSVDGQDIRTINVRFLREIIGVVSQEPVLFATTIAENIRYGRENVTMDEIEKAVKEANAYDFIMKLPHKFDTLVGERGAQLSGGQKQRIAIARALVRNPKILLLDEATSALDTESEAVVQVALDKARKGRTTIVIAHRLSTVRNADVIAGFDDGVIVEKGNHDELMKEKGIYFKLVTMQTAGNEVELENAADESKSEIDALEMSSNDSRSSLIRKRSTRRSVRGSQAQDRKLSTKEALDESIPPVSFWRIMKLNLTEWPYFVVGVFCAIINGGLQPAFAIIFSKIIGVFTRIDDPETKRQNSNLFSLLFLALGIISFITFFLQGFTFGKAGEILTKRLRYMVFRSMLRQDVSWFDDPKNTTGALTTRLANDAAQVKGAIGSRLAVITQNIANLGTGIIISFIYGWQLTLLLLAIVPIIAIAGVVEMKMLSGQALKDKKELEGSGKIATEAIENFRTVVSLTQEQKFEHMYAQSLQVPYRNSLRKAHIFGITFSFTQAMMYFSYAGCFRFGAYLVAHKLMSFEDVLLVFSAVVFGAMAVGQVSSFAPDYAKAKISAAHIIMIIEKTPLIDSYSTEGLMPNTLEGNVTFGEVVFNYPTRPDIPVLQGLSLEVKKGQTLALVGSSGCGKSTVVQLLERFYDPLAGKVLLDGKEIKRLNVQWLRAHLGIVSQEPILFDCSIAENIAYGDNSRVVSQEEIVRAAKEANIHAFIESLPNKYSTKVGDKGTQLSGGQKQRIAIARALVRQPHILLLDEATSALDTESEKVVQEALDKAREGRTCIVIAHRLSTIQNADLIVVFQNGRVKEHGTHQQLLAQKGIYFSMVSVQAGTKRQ
cyclophilin A, sequence (P62937 whole entry, species assumed): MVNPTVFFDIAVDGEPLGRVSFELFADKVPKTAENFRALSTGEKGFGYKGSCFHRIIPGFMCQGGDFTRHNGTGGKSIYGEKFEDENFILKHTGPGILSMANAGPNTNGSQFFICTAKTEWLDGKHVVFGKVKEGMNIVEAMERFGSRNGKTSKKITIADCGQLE

## C/C=C/C[C@@H](C)[C@@H](O)[C@H]1C(=O)N[C@@H](CC)C(=O)N(C)[C@H](SCCN(C)C)C(=O)N(C)[C@@H](CC(C)(C)O)C(=O)N[C@@H](C(C)C)C(=O)N(C)[C@@H](CC(C)C)C(=O)N[C@@H](C)C(=O)N[C@H](C)C(=O)N(C)[C@@H](CC(C)C)C(=O)N(C)[C@@H](CC(C)C)C(=O)N(C)[C@@H](C(C)C)C(=O)N1C [WS635, (3 S,6 S,9S,12R,15 S,18 S,21 S,24S,27R,30S,33 S)-27-((2-(dimethylamino)ethyl)thio)-30-ethyl-33-((1R,2R,E)-1-hydroxy-2-methylhex-4-en-1-yl)-24-(2-hydroxy-2-methy 1propyl)-6,9,18-tri isobutyl-3,21-diisopropyl-1,4,7,10,12,15,19,25,28-nonamethyl-1,4,7,10,13,16,19,22,25,28,3 1-undecaazacyclotritriacontan-2,5,8,11,14,17,20,23,26,29,32-undecaone]
[1]; 40 mg/kg IP 30 minutes before anesthesia/surgery, 18-month-old C57BL/J6 female mice
  anesthesia/surgery-induced increase of latency to eat food in the buried food test: can attenuate
[1]; mice
  anesthesia/surgery-induced changes in Buried Food Test, dose dependence: dose-dependent manner
[2]
  anesthesia/surgery-induced decrease of duration in the novel arm in the Y maze test: can attenuate
  anesthesia/surgery-induced decrease of number of entries in the novel arm in the Y maze test: can attenuate
[3]
  anesthesia/surgery-induced change of freezing time in the open field test: can attenuate
  anesthesia/surgery-induced decrease of time spent in the center of the open field: can attenuate
  anesthesia/surgery-induced increase of latency to the center in the open field test: can attenuate
[4]; 40 mg/kg
  anesthesia/surgery-induced changes of delirium-like behaviors: more effectively attenuate
[4]; FIG. 15
  anesthesia/surgery-induced delirium-like behavior (composite Z score): able to attenuate
[5]
  anesthesia/surgery-induced cognitive impairment: significantly attenuate
[6]
  suppression of hepatitis C virus (HCV) replication: potent suppression
Cyclophilin A
  inhibition of the peptidyl prolyl isomerase activity of cyclophilin A: nanomolar concentrations
calcineurin
  inhibition of calcineurin phosphatase activity: no detectable inhibition
Cytochrome P450 1A2
  induction of cytochrome P450 1A2: did not induce
Cytochrome P450 2B6
  induction of cytochrome P450 2B6: did not induce
Cytochrome P450 3A4
  induction of cytochrome P450 3A4: did not induce
P-glycoprotein
  P-glycoprotein inhibition: weak inhibitor
  P-glycoprotein substrate: poor substrate
Stimulated Jurkat cells
  inhibition of interleukin-2 secretion: weaker inhibitor of interleukin-2 secretion than cyclosporine
[7]
  inhibition of interleukin-2 secretion: weaker inhibitor of interleukin-2 secretion than cyclosporine
Hepatitis C virus (HCV)
  antiviral activity in combination with alpha interferon 2b: synergistic antiviral activity
  antiviral activity in combination with ribavirin: additive antiviral activity
[8]; in vivo, po
  blood and liver concentrations of parent drug versus 50% effective dose in replicon assay: exceeded the 50% effective dose
[8]; multiple animal species
  oral bioavailability: orally bioavailable
